In US20030176314A1, “Compounds for the treatment of pain” (priority 2001, published 2003):
Structures can show the parent of a compound that is named as a salt.

How the values were obtained:
rat NPFF2 receptor = biological target: T1, rat NPFF2 receptor (Rattus norvegicus, UniProt Q9EQD2); assay: Functional assay (agonist potency, intrinsic activity) at cloned rat NPFF2 receptor; format: cell-based; conditions: Table 7, intrinsic activity
T1 construct: The full-length NPFF2 was amplified from rat spinal cord cDNA; expressed in transfected cells; host or cells: not given

[1] = biological target: N-methyl-D-aspartate (NMDA) receptor channel complex; assay: Binding at native NMDA receptor channels; design: species or system rat; conditions: Table 8
Description: NMDA Receptor Channels: The methods to determine binding affinity at native N-methyl-D-aspartate (NMDA) receptor channels are described in Wong E. H. et al. (1988), the disclosure of which is hereby incorporated by reference in its entirety into this application.
(§1) The binding affinity (Ki) of these compounds were tested according to the protocols described herein at the following receptors; human α1A, α1B, α1D, α2A, α2B, and α2C adrenergic receptors; human Y1, Y2, Y4, and Y5 receptors; and N-Methyl-D-aspartic acid (NMDA) receptor channels. The binding interactions of these compounds were additionally tested at the norepinephrine (NE) transporter (NE uptake) and serotonin (5-hydroxytryptamine (5HT)) transporter (5HT uptake) according to protocols described herein

[2] = biological target: T2, human α2A adrenergic receptor (Homo sapiens, UniProt P08913); assay: Binding at human α2A adrenergic receptor; conditions: Table 8; read-out: hα2A Ki
T2 construct: host or cells: LM(tk-) cells, line L-α2A
T2 sequence (P08913 1-465): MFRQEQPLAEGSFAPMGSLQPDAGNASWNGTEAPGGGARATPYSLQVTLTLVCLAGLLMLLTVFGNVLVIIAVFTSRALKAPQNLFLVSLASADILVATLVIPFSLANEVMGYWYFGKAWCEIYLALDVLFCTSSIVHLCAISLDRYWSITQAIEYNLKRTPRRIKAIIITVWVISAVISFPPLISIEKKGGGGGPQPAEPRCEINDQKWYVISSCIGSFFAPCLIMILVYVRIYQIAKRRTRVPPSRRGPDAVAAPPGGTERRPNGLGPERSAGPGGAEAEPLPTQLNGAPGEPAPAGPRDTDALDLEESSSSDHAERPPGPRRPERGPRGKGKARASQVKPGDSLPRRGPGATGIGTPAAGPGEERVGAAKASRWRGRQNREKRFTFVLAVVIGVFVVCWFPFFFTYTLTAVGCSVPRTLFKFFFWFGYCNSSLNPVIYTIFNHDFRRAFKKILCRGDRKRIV
Text: (§2) α2 Human Adrenergic Receptors: To determine the binding of compounds to human α2 receptors, LM(tk−) cell lines stably transfected with the genes encoding the α2A, α2B, and α2C receptors were used. The cell line expressing the α2A receptor is designated L-α2A, and was deposited on Nov. 6, 1992, under ATCC Accession No. CRL 11180. The cell line expressing the α2B receptor is designated L-NGC-α2B, and was deposited on Oct. 25, 1989, under ATCC Accession No. CRL 10275. The cell line expressing the α2C receptor is designated L-α2C, and was deposited on Nov. 6, 1992, under ATCC Accession No. CRL-11181. Cell lysates were prepared as described herin, and suspended in 25 mM glycyiglycine buffer (pH 7.6 at room temperature). Equilibrium competition binding assay were performed using […] (0.5 nM), and nonspecific binding was determined by incubation with 10 μM phentolamine. The bound radioligand was separated by filtration through GF/B filters using a cell harvester.
as §1

[3] = biological target: T3, human α2B adrenergic receptor (Homo sapiens, UniProt P18089); assay: Binding at human α2B adrenergic receptor; conditions: Table 8; read-out: hα2B Ki
T3 construct: host or cells: LM(tk-) cells, line L-NGC-α2B
T3 sequence (P18089 1-450): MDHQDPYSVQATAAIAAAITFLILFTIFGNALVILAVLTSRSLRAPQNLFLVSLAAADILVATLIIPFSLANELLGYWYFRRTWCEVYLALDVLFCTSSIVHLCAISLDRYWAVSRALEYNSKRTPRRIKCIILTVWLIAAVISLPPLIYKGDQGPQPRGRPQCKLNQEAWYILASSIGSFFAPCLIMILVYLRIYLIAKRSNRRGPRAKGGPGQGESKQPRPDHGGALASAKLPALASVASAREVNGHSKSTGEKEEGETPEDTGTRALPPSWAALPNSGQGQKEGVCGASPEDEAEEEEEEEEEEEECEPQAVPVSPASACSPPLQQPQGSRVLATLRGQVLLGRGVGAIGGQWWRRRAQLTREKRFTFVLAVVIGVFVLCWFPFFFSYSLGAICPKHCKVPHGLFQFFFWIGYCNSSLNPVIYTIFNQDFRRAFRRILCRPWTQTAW
Text: as §2, §1

[4] = biological target: T4, human α2C adrenergic receptor (Homo sapiens, UniProt P18825); assay: Binding at human α2C adrenergic receptor; conditions: Table 8; read-out: hα2C Ki
T4 construct: host or cells: LM(tk-) cells, line L-α2C
T4 sequence (P18825 1-462): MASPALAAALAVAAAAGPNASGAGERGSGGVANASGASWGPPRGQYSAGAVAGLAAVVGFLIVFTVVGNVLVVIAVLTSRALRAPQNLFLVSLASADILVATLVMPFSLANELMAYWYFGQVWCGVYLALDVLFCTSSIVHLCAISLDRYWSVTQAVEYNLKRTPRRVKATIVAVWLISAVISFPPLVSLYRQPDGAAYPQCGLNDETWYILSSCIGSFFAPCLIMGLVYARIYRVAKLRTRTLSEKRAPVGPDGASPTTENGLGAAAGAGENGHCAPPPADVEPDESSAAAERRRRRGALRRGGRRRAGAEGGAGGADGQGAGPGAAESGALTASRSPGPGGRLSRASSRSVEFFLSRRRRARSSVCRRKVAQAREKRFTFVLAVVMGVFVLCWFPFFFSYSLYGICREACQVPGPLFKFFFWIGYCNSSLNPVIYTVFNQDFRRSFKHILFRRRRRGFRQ
Text: as §2, §1

[5] = biological target: T5, norepinephrine (NE) transporter (Rattus norvegicus, UniProt Q63380); assay: Binding at native norepinephrine transporter (NE uptake); conditions: Table 8
T5 construct: evaluated at native, tissue-derived transporters; from tissue
Description: (§3) Transporters: The binding properties of compounds were evaluated at native, tissue-derived transporters, namely serotonin (5HT) transporter and norepinephrine (NE) transporter, according to protocols described in Owens (1997), the disclosure of which is hereby incorporated by reference in its entirety into this application.
as §1

[6] = biological target: T6, serotonin (5HT) transporter (Rattus norvegicus, UniProt P31652); assay: Binding at native serotonin transporter (5HT uptake); conditions: Table 8
T6 construct: evaluated at native, tissue-derived transporters; from tissue
Description: as §3, §1

rat NPFF1 receptor = biological target: T7, rat NPFF1 receptor (Rattus norvegicus, UniProt Q9EP86); assay: Functional assay (agonist potency, intrinsic activity) at cloned rat NPFF1 receptor; format: cell-based; conditions: Table 7, intrinsic activity
T7 construct: expressed in transfected cells; host or cells: not given

human NPFF2 receptor = biological target: T8, human NPFF2 receptor (Homo sapiens, UniProt Q9Y5X5); assay: Functional assay (agonist potency, intrinsic activity) at cloned human NPFF2 receptor; format: cell-based; conditions: Table 6, intrinsic activity
T8 construct: one of these, B089, was determined to be a full length clone with no point mutations; expressed in transfected cells; host or cells: not given

[7] = tested on: distension induced contractions of the rat bladder; assay: Distension-induced rhythmic contraction (DIRC) model, micturition reflex in anesthetized rats; format: in vivo
Text: This model is widely considered to be predictive for the actions of drugs to treat human urge incontinence (also refered to as detrusor instability or unstable bladder). Examples of drugs that are active in this model which also are used therapeutically in humans include oxybutynin and baclofen (Morikawa et al, 1992); imipramine and nortriptyline (Pietra et al, 1990); and nifedipine and terodiline (Guarneri et al, 1993).
Female Sprague Dawley rats weighing approximately 300 g were anesthetized with subcutaneous urethane (1.2 g/kg). The trachea was cannulated with PE240 tubing to provide a clear airway throughout the experiment. A midline abdominal incision was made and the left and right ureters were isolated. The ureters were ligated distally (to prevent escape of fluids from the bladder) and cannulated proximally with PE10 tubing. The incision was closed using 4-0 silk sutures, leaving the PE10 lines routed to the exterior for the elimination of urine. The bladder was canulated via the transurethral route using PE50 tubing inserted 2.5 cm beyond the urethral opening. This cannula was secured to the tail using tape and connected to a pressure transducer. To prevent leakage from the bladder, the cannula was tied tightly to the exterior urethral opening using 4-0 silk.
To initiate the micturition reflex, the bladder was first emptied by applying pressure to the lower abdomen, and then filled with normal saline in 100 μl increments (maximum=2 ml) until spontaneous bladder contractions occurred (typically 20-40 mmHg at a rate of one contraction every 2 to 3 minutes. Once a regular rhythm was established, vehicle (saline) or test compounds were administered i.v. to examine their effects on bladder activity. The effect of a compound which inhibited the micturition reflex was expressed as its “disappearance time”, defined as the time between successive bladder contractions in the presence of the test compound minus the time between contractions before compound administration.

[8] = tested on: distension induced contractions of the rat bladder; conditions: drugs used therapeutically in humans, from publications; cited from earlier work

T6 sequence (P31652 whole entry): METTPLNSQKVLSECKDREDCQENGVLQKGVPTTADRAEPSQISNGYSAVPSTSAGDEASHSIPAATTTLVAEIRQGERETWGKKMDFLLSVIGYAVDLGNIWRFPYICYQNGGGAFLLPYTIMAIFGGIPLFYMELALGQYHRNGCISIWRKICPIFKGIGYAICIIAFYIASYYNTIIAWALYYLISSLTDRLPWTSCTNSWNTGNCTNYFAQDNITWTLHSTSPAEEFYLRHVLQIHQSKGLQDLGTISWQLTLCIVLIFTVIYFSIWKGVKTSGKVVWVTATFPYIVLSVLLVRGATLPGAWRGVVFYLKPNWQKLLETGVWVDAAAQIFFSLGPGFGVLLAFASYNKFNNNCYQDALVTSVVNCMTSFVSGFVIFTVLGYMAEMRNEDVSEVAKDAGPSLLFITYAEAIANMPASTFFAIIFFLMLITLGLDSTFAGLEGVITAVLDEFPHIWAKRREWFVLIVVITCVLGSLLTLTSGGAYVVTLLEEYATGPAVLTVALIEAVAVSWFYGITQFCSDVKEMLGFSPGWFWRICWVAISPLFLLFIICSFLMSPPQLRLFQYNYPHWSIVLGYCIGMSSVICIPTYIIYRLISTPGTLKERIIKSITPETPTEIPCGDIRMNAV
T1 sequence (Q9EQD2 whole entry): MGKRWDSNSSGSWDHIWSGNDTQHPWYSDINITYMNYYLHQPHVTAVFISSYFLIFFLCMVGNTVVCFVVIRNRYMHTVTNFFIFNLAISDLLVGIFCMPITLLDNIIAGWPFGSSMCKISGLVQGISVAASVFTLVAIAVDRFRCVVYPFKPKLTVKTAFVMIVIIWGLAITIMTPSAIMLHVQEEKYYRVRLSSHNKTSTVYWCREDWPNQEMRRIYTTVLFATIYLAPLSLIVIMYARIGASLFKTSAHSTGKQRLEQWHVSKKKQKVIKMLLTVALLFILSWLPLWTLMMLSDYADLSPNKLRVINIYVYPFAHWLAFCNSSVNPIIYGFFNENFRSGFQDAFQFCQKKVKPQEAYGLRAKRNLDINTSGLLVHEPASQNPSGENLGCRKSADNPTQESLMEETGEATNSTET
T8 sequence (Q9Y5X5 103-522): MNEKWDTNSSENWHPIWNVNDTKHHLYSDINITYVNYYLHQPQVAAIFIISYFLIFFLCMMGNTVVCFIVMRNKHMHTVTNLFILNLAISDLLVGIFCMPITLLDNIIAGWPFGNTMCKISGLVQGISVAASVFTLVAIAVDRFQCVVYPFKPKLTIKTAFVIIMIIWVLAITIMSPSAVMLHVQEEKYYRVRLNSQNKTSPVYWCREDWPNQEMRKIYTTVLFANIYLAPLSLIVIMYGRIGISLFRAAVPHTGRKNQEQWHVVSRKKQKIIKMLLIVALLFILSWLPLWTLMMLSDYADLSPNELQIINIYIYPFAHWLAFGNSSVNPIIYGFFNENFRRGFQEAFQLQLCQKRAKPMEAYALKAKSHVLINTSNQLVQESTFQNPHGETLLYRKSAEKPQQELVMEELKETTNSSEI
T7 sequence (Q9EP86 whole entry): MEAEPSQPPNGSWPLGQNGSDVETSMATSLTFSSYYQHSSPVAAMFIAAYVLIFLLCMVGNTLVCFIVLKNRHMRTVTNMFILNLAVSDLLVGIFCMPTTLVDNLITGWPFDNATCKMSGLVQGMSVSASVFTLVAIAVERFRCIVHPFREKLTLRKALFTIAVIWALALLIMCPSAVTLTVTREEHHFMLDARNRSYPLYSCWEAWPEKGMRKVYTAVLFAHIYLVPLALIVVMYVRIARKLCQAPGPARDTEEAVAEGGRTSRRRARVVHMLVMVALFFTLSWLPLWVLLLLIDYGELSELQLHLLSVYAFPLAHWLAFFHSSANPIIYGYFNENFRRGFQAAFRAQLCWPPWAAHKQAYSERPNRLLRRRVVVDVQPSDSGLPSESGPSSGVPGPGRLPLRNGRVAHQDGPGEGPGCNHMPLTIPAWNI
T5 sequence (Q63380 1-617): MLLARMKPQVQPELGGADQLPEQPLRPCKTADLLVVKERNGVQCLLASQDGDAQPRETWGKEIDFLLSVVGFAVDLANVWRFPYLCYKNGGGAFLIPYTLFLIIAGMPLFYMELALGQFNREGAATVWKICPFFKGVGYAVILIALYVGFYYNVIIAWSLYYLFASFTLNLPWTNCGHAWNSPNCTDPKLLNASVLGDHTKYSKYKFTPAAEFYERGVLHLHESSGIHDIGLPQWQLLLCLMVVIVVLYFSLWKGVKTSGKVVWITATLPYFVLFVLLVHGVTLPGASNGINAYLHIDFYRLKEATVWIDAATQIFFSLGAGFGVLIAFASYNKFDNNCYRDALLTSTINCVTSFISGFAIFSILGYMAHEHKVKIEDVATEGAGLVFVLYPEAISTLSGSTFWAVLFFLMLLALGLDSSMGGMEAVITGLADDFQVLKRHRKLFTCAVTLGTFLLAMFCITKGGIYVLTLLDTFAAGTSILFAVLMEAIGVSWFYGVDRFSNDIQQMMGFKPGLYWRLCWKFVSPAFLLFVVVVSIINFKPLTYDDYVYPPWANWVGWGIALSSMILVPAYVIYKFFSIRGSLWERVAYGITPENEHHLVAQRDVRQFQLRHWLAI

## Cc1nc(NC(=N)N)nc2cc(OCc3ccccc3)ccc12 (as salt: salt) [Compound 1006A, N-[7-(benzyloxy)-4-methyl-2-quinazolinyl]guanidine]
other
  melting point: 215 to 217 °C (dec.)

## Cc1cc2nc(NC(=N)N)nc(C)c2cc1O (as salt: salt) [Compound 1017A, N-(6-hydroxy-4,7-dimethyl-2-quinazolinyl)guanidine]
other
  melting point: 246 to 248 °C (dec.)

## CCc1ccc2nc(NC(=N)N)nc(C)c2c1 [Compound 1003A, N-(6-ethyl-4-methyl-2-quinazolinyl)guanidine]
Rat NPFF2 receptor
  rNPFF2 IA: 83% NPFF
[1]
  Ki: 19.5 µM
[2]
  Ki: 1.97 µM
[3]
  Ki: 31.8 µM
[4]
  Ki: 8.45 µM

## CCc1ccc2c(C)nc(NC(=N)N)nc2c1 [Compound 1020A, N-(7-ethyl-4-methyl-2-quinazolinyl)guanidine]
Rat NPFF2 receptor
  rNPFF2 IA: 90% NPFF
[5]
  Ki: 8.02 µM
[6]
  Ki: 5.59 µM
[2]
  Ki: 1.17 µM
[3]
  Ki: 20.9 µM
[4]
  Ki: 4.13 µM

## Cc1nc(NC(=N)N)nc2cc(C(C)(C)C)ccc12 [Compound 1022A, N-[7-(tert-butyl)-4-methyl-2-quinazolinyl]guanidine]
Rat NPFF1 receptor
  rNPFF1 IA: 19% NPFF
Rat NPFF2 receptor
  rNPFF2 IA: 81% NPFF
other
  melting point: 195 to 198 °C (dec.)

## Cc1nc(NC(=N)N)nc2cc(-c3ccccc3)ccc12 [Compound 1023A, N-(4-methyl-7-phenyl-2-quinazolinyl)guanidine]
Rat NPFF2 receptor
  rNPFF2 IA: 35% NPFF
Human NPFF2 receptor
  hNPFF2 IA: 43% NPFF

## Cc1nc(NC(=N)N)nc2cc3c(cc12)CCC3 [Compound 1038A, N-(4-methyl-7,8-dihydro-6H-cyclopenta[g]quinazolin-2-yl)guanidine]
Rat NPFF2 receptor
  rNPFF2 IA: 74% NPFF
other
  melting point: 295 to 298 °C (dec.)

## CCCCCc1ccc2nc(NC(=N)N)nc(C)c2c1 [Compound 2001A, N-(4-methyl-6-pentyl-2-quinazolinyl)guanidine]
Rat NPFF1 receptor
  rNPFF1 IA: 71% NPFF
Rat NPFF2 receptor
  rNPFF2 IA: 103% NPFF
Human NPFF2 receptor
  hNPFF2 IA: 84% NPFF
[1]
  Ki: 8.13 µM
[5]
  Ki: 1.16 µM
[6]
  Ki: 0.962 µM
[2]
  Ki: 0.808 µM
[3]
  Ki: 7.41 µM
[4]
  Ki: 1.91 µM

## CCC(C)c1ccc2nc(NC(=N)N)nc(C)c2c1 (stereo not drawn) [Compound 2002A, N-(6-sec-butyl-4-methyl-2-quinazolinyl)guanidine]
Rat NPFF1 receptor
  rNPFF1 IA: 51% NPFF
Rat NPFF2 receptor
  rNPFF2 IA: 92% NPFF
[1]
  Ki: 7.62 µM
[2]
  Ki: 0.713 µM
[3]
  Ki: 12.9 µM
[4]
  Ki: 3.33 µM

## CCc1ccc2nc(NC(=N)N)cc(C)c2c1 [Compound 4002A, N-(6-ethyl-4-methyl-2-quinolinyl)guanidine]
Rat NPFF2 receptor
  rNPFF2 IA: 84% NPFF
Human NPFF2 receptor
  hNPFF2 IA: 69% NPFF
[1]
  Ki: 12.8 µM
[2]
  Ki: 0.267 µM
[3]
  Ki: 10.4 µM
[4]
  Ki: 1.4 µM

## Cc1ccc2c(C)cc(NC(=N)N)nc2c1 [Compound 4006A, N-(4,7-dimethyl-2-quinolinyl)guanidine]
Rat NPFF2 receptor
  rNPFF2 IA: 32% NPFF
[5]
  Ki: 12.4 µM
[6]
  Ki: 8.79 µM
[7]; 3 mg/kg, i.v.
  inhibition of distention induced contractions of the rat bladder: complete inhibition
[7]; i.v. administration, anesthetized rat (figure legends)
  time for which inhibition of bladder activity persisted: 12 min

## CCCCCc1ccc2nc(NC(=N)N)cc(C)c2c1 [Compound 5002A, N-(4-methyl-6-pentyl-2-quinolinyl)guanidine]
Rat NPFF1 receptor
  rNPFF1 IA: 41% NPFF
Rat NPFF2 receptor
  rNPFF2 IA: 90% NPFF
Human NPFF2 receptor
  hNPFF2 IA: 75% NPFF

## CCCCCCc1ccc2nc(NC(=N)N)cc(C)c2c1 [Compound 5003A, N-(6-hexyl-4-methyl-2-quinolinyl)guanidine]
Rat NPFF1 receptor
  rNPFF1 IA: 27% NPFF
Rat NPFF2 receptor
  rNPFF2 IA: 57% NPFF
Human NPFF2 receptor
  hNPFF2 IA: 45% NPFF

## NCC(CC(=O)O)c1ccc(Cl)cc1 (stereo not drawn) [baclofen]
[8]
  activity in the DIRC model: active

## CN(C)CCCN1c2ccccc2CCc2ccccc21 [imipramine]
[8]
  activity in the DIRC model: active

## CNCCC=C1c2ccccc2CCc2ccccc21 [nortriptyline]
[8]
  activity in the DIRC model: active

## CCN(CC)CC#CCOC(=O)C(O)(c1ccccc1)C1CCCCC1 (stereo not drawn) [oxybutynin]
[8]
  activity in the DIRC model: active

## CC(CC(c1ccccc1)c1ccccc1)NC(C)(C)C (stereo not drawn) [terodiline]
[8]
  activity in the DIRC model: active
